Measured values published in patent publication US8178506B2, “Oligomeric compounds and compositions for use in modulation of small non-coding RNAs” (Regulus Therapeutics Inc., priority 2003, dated 2012).
In the oligonucleotide strings, read from the 5' end, every base follows the letter of its sugar. An asterisk marks phosphorothioate; unmarked linkages are phosphodiester. Other units and linkages are bracketed, terminal groups are in braces. A string of capitals states the bases alone. e = 2'-O-(2-methoxyethyl) (MOE); [5mC] = 5-methylcytosine; d = 2'-deoxy (DNA)

The substances below were run on IL-12 mRNA (assay: IL-12 mRNA in LPS-activated primary murine macrophages). Conditions: 300 nM oligomeric compound and LPS, no IFN-gamma pretreatment; single experiment; normalized to LPS-treated cells without oligomeric compound.
Type: cell-based, mouse
Description: To investigate the role of miRNAs in the immune response, oligomeric compounds of the present invention targeting miRNAs were tested for their effects upon lipopolysaccharide (LPS)-activated primary murine macrophages. Macrophages participate in the immune response, for example, in the recognition and phagocytosis of microorganisms, including bacteria. Interferon-gamma (IFN-gamma) released by helper T cells is one type of signal required for macrophage activation, and LPS can serve as an additional stimulus. LPS is a component of the gram-negative bacterial cell wall and acts as an agonist for toll-like receptor 4 (TLR4), the primary LPS receptor expressed by macrophages. The proinflammatory cytokines interleukin-12 (IL-12) and interleukin-6 (IL-6) are induced by LPS treatment of macrophages, thus the expression of the mRNAs encoding these cytokines was used to evaluate the response of macrophages to LPS following treatment with oligomeric compounds targeting miRNAs.
Macrophages were isolated as follows. Female C57B1/6 mice (Charles River Laboratories, Wilmington, Mass.) were injected intraperitoneally with 1 ml 3% thioglycollate broth (Sigma-Aldrich, St. Louis, Mo.), and peritoneal macrophage cells were isolated by peritoneal lavage 4 days later. The cells were plated in 96-well plates at 40,000 cells/well for one hour in serum-free RPMI adjusted to contain 10 mM HEPES (Invitrogen Life Technologies, Carlsbad, Calif.), allowed to adhere, then non-adherent cells were washed away and the media was replaced with RPMI containing 10 mM HEPES, 10% FBS and penicillin/streptomycin (“complete” RPMI; Invitrogen Life Technologies, Carlsbad, Calif.).
Oligomeric compounds were introduced into the cells using the non-liposomal transfection reagent FuGENE 6 Transfection Reagent (Roche Diagnostics Corp., Indianapolis, Ind.). Oligomeric compound was mixed with FuGENE 6 in 1 mL of serum-free RPMI to achieve a concentration of 10 μL FuGENE per 1000 nM oligomeric compound. The oligomeric compound/FuGENE complex was allowed to form at room temperature for 20 minutes. This mixture was diluted to the desired concentration of oligomeric compound by the addition of the appropriate volume of complete RPMI. The final ratio of FuGENE 6 to oligomeric compound was 1 μL of FuGENE 6 per 100 nM oligomeric compound. A volume of 100 μL of oligomeric compound/FuGENE/RPMI was added to each well of the 96-well plate in which the macrophages were cultured. Each oligomeric compound treatment was repeated in triplicate.
Following oligomeric compound treatment, cells were stimultated with LPS. Cells were cultured in the presence of the transfection complex for approximately 24 to 28 hours at 37° C. and 5% CO2, after which the medium containing the transfection complex was removed from the cells, and complete RPMI containing 100 ng/mL LPS (Sigma-Aldrich Corp., St. Louis, Mo.) was added to the cells for a period of approximately 24 hours. Control samples included (1) cells receiving no oligomeric compound, stimulated with LPS and (2) cells receiving neither oligomeric compound nor LPS treatment.
In another embodiment, following oligomeric compound treatment, cells were first activated by IFN-gamma, to amplify the response to LPS. Cells were cultured in the presence of the transfection complex for approximately 24 hours at 37° C. and 5% CO2, at which point the medium containing the transfection complex was removed from the cells, and complete RPMI containing 100 ng/mL recombinant mouse IFN-gamma (R&D Systems, Minneapolis, Minn.) was added to the cells. After the 4 hour treatment with INF-gamma, cells were treated with 100 ng/mL LPS for approximately 24 hours. Control samples included (1) cells receiving no oligomeric compound, stimulated with LPS and (2) cells receiving neither oligomeric compound nor LPS treatment. […]

Substance | IL-12 mRNA expression, −IFN % UTC [% UTC]
341815 (antisense CAUCGUUACCAGACAGUGUUA; all 2'-MOE, all phosphorothioate, methylation of C and T or U not given here) [compound 341815] | 190
341786 (antisense CGCAAGGUCGGUUCUACGGGUG; all 2'-MOE, all phosphorothioate, methylation of C and T or U not given here) [compound 341786] | 266
341811 (antisense UCCACAUGGAGUUGCUGUUACA; all 2'-MOE, all phosphorothioate, methylation of C and T or U not given here) [compound 341811] | 154
340345 (antisense GGAACUUAGCCACUGUGAA; all 2'-MOE, all phosphorothioate, methylation of C and T or U not given here) [compound 340345] | 104
341790 (antisense CGAAGGCAACACGGAUAACCUA; all 2'-MOE, all phosphorothioate, methylation of C and T or U not given here) [compound 341790] | 318

Same assay, conditions: 300 nM oligomeric compound, stimulation with IFN-gamma and LPS; average of 2 experiments; normalized to LPS-treated cells without oligomeric compound

Substance | IL-12 mRNA expression, +IFN % UTC [% UTC]
341815 (antisense CAUCGUUACCAGACAGUGUUA; all 2'-MOE, all phosphorothioate, methylation of C and T or U not given here) [compound 341815] | 157
341786 (antisense CGCAAGGUCGGUUCUACGGGUG; all 2'-MOE, all phosphorothioate, methylation of C and T or U not given here) [compound 341786] | 99
341811 (antisense UCCACAUGGAGUUGCUGUUACA; all 2'-MOE, all phosphorothioate, methylation of C and T or U not given here) [compound 341811] | 88
340345 (antisense GGAACUUAGCCACUGUGAA; all 2'-MOE, all phosphorothioate, methylation of C and T or U not given here) [compound 340345] | 78
341790 (antisense CGAAGGCAACACGGAUAACCUA; all 2'-MOE, all phosphorothioate, methylation of C and T or U not given here) [compound 341790] | 84

These substances were tested on T47D cells (assay: Caspase-3 activity assay (apoptosis) in T47D cells). Conditions: T47D cells, 200 nM oligomeric compound, 48 hours; experiment of Table 10.

Substance | Fold Increase over UTC (caspase-3 activity, apoptosis) [fold]
328672 (eA*eA*eG*eG*e[5mC]*dT*dT*dT*dT*dT*dG*d[5mC]*dT*d[5mC]*dA*eA*eG*eG*eG*e[5mC]; antisense) [compound 328672] | 0.9
328700 (eA*eG*e[5mC]*e[5mC]*eA*dG*dT*dG*dT*dG*dT*dA*dA*dA*dA*eT*eG*eA*eG*eA; antisense) [compound 328700] | 0.8
328409 (antisense eG*e[5mC]*eT*eA*eG*dT*dG*dA*d[5mC]*dA*dG*dG*dT*dG*d[5mC]*eA*eG*eA*e[5mC]*eA) [compound 328409] | 0.7

Same assay, conditions: T47D cells, 200 nM oligomeric compound, 48 hours; experiment of Table 11

Substance | Fold Increase over UTC (caspase-3 activity, apoptosis) [fold]
328655 (eT*eA*e[5mC]*eA*eA*d[5mC]*dG*dG*d[5mC]*dA*dT*dT*dG*dT*d[5mC]*e[5mC]*eT*eG*eA*eA; antisense) [compound 328655] | 0.7
328393 (eG*e[5mC]*eT*eG*eG*d[5mC]*d[5mC]*dT*dG*dA*dT*dA*dG*d[5mC]*d[5mC]*e[5mC]*eT*eT*e[5mC]*eT; antisense) [compound 328393] | 1.5
328404 (antisense eG*eT*eA*eG*eA*dT*d[5mC]*dT*d[5mC]*dA*dA*dA*dA*dA*dG*e[5mC]*eT*eA*e[5mC]*e[5mC]) [compound 328404] | 0.9
328638 (e[5mC]*e[5mC]*eG*eA*eG*dG*dG*dT*d[5mC]*dT*dA*dA*d[5mC]*d[5mC]*d[5mC]*eA*eG*e[5mC]*e[5mC]*e[5mC]; antisense) [compound 328638] | 0.8
328654 (eT*e[5mC]*e[5mC]*eA*eG*dG*dA*dT*dG*d[5mC]*dA*dA*dA*dA*dG*e[5mC]*eA*e[5mC]*eG*eA; antisense) [compound 328654] | 1.0

Same assay, conditions: T47D cells, 200 nM oligomeric compound, 48 hours; experiment of Table 12

Substance | Fold Increase over UTC (caspase-3 activity, apoptosis) [fold]
328658 (eA*eG*eA*eA*eT*dG*dA*dG*dT*dT*dG*dA*d[5mC]*dA*dT*eA*e[5mC]*e[5mC]*eA*eA; antisense) [compound 328658] | 1.2
328389 (eG*eG*e[5mC]*eA*e[5mC]*dT*dT*d[5mC]*dA*dT*dT*dG*d[5mC]*dT*dG*e[5mC]*eT*eG*e[5mC]*e[5mC]; antisense) [compound 328389] | 1.1
328642 (eA*e[5mC]*eT*e[5mC]*e[5mC]*d[5mC]*dA*dG*dG*dG*dT*dG*dT*dA*dA*e[5mC]*eT*e[5mC]*eT*eA; antisense) [compound 328642] | 1.0
328640 (eT*e[5mC]*eT*e[5mC]*e[5mC]*dT*dT*dG*dG*dG*dT*dG*dT*d[5mC]*d[5mC]*eT*e[5mC]*e[5mC]*eT*e[5mC]; antisense) [compound 328640] | 0.9

Same assay, conditions: T47D cells, 200 nM, 48 hours, relative to untreated control

Substance | Fold Increase over UTC (caspase activity)
328381 (eA*e[5mC]*eA*eG*eG*dT*dG*dA*dG*d[5mC]*dG*dG*dA*dT*dG*eT*eT*e[5mC]*eT*eG; antisense) [compound 328381] | 1.1
328648 (eA*e[5mC]*eT*eG*eA*dT*dT*d[5mC]*dA*dA*dG*dA*dG*d[5mC]*dT*eT*eT*eG*eT*eA; antisense) [compound 328648] | 1.1
328372 (eT*eT*eT*eG*eA*dT*dA*dG*dT*dT*dT*dA*dG*dA*d[5mC]*eA*e[5mC]*eA*eA*eA; antisense) [compound 328372] | 1.0
328391 (eA*eT*eG*eG*eT*dA*dA*dT*dT*dT*d[5mC]*dA*dT*dT*dT*e[5mC]*eA*eG*eG*e[5mC]; antisense) [compound 328391] | 0.8
328643 (e[5mC]*eA*eT*eG*eA*dA*dG*dA*dA*dA*dG*dA*d[5mC]*dT*dG*eT*eA*eG*e[5mC]*e[5mC]; antisense) [compound 328643] | 0.9

Same assay, conditions: caspase assay, 200 nM; conclusion from Tables 9-12

Substance | apoptosis in T47D cells
SEQ ID NO 539: gapmer of Tables 9-12 having this SEQ ID NO (e[5mC]*e[5mC]*eG*eG*e[5mC]*dT*dA*dT*dT*dG*dA*dG*dT*dT*dA*eT*eG*eT*eA*e[5mC]) | induce apoptosis
GTGTTCAGAAACCCAGGCCC (antisense; same sequence listed as MOE 5-10-5 gapmer and as uniform MOE, further chemistry not given here) [ISIS 328653] | induce apoptosis
SEQ ID NO 485: gapmer of Tables 9-12 having this SEQ ID NO (antisense eT*e[5mC]*eA*e[5mC]*eA*dA*dT*d[5mC]*d[5mC]*d[5mC]*d[5mC]*dA*d[5mC]*d[5mC]*dA*eA*eA*e[5mC]*eT*e[5mC]) | prevent or have a protective effect from apoptosis
ACTGATTCAAGAGCTTTGTA (antisense; same sequence listed as MOE 5-10-5 gapmer and as uniform MOE, further chemistry not given here) [ISIS 328648] | induce apoptosis
SEQ ID NO 488: gapmer of Tables 9-12 having this SEQ ID NO (antisense e[5mC]*eT*eG*eA*e[5mC]*dT*dG*dA*dG*dA*d[5mC]*dT*dG*dT*dT*e[5mC]*eA*e[5mC]*eA*eG) | induce apoptosis
TTTCAGGCTCACCTCCCCAG (antisense; same sequence listed as MOE 5-10-5 gapmer and as uniform MOE, further chemistry not given here) [ISIS 328656] | induce apoptosis
GGCCTAATATCCCTACCCCA (antisense; same sequence listed as MOE 5-10-5 gapmer and as uniform MOE, further chemistry not given here) [ISIS 328652] | induce apoptosis
ISIS 328397: 5-10-5 2′-MOE gapmer PS; targets mir-103-1 pri-miRNA (eT*eT*eG*eA*eT*d[5mC]*d[5mC]*dA*dT*dA*dT*dG*d[5mC]*dA*dA*e[5mC]*eA*eA*eG*eG) | induce apoptosis
